Experiments:
Type in all cases: in vivo, mouse
[1] = system: C57BL/6 mice with sepsis induced by bacterial lipopolysaccharide; test: LPS-induced sepsis: echocardiography; details: 30 mg/kg i.p. at 0 and 6 h after LPS
Experimental: Female C57BL/6NRJ mice, 10 weeks of age, were purchased from Janvier Labs and housed under 12 h:12 h light:dark cycles with access to food and water ad libitum. The mice were randomly assigned to the two treatment groups, n=5 mice per group. Sepsis was induced by intraperitoneal (i.p.) injection of 5 mg/kg bacterial lipopolysaccharide (Sigma-Aldrich) in all animals. Immediately thereafter and 6 h later, the mice received treatment with 30 mg/kg ABR-238901 or an equivalent volume of PBS administered i.p. The mice were monitored daily to ensure their well-being. All mouse studies were approved by the Animal Research Ethics Committee of Lund University.
Transthoracic echocardiography was performed at baseline before induction of sepsis, and at 6 h, 12 h and 24 h using the Vevo 3100 platform (VisualSonics) equipped with a MX550D imaging transducer. Anesthesia was induced with 2% Isoflurane (AbbVie) and maintained with 1.25% Isoflurane throughout imaging. Hair was removed using depilatory cream before the application of pre-warmed ultrasound gel. Parasternal long axis recordings were performed in the plane containing the aortic valves and a maximal apex view. Analysis was carried out using the VevoLab software (Visual Sonics). Briefly, the perimeter and long axis of the left ventricle were traced at the end of diastole and at the end of systole and used to calculate left ventricular end-systolic and end-diastolic volumes. Left ventricular stroke volume was calculated as the difference between the left ventricular end-diastolic and end-systolic volumes. Left ventricular ejection fraction was calculated as percentage stroke volume out of the end-diastolic volume. Cardiac output was calculated by multiplying the stroke volume with the heart rate at the time of the examination.

[2] = system: C57BL/6 mice with coronary artery ligation for 60 minutes followed by reperfusion; test: Myocardial ischemia (60 minutes)/reperfusion, short-term (3 days) treatment: echocardiography and flow cytometry
Experimental: (a) C57BL/6 mice with MI induced by coronary artery ligation for 60 minutes followed by reperfusion received three daily i.p. injections of ABR or PBS, starting at the time of reperfusion and administered on days 0, 1 and 2 post-MI. Cardiac function was assessed by echocardiography the day before surgery and on days 3, 7, 14 and 21 in the Sham (n=10), Sham+ABR (n=10), MI (n=22) and MI+3d ABR (n=13) groups. […] (F) Neutrophil and (G) monocyte counts in the bone marrow were increased 2 days after myocardial ischaemia/reperfusion in the MI+3d ABR group (n=6) compared to the MI group treated with PBS (n=6). (H) Neutrophil, (I) monocyte, and (J) macrophage numbers in the myocardium in the MI and MI+3d ABR groups on Day 2 post-MI. […] The P-values refer to the difference between the MI and the MI+3d ABR groups. The P-values for the repeated measurement experiments refer to the difference between the MI and the MI+3d ABR groups, analysed by 2-way ANOVA with Fisher LSD post-hoc evaluation. Only the significant P-values are shown. Data is presented as mean±SD.
Ultrasound measurements were performed at day −1 (baseline), 7, and 21 to assess cardiac function using a Vevo 770 echocardiographic imaging system with a 707B probe (VisualSonics, Toronto, Canada). In selected experiments, additional assessment was performed on days 3 and 14. The mice were anesthetized using 1-3% isoflurane and hair was carefully removed using depilatory cream. To maintain body temperature, the mice were placed in supine position on a heated surface (37° C.). Two-dimensional M-mode images were recorded in the parasternal short-axis view at the mid-papillary level. Five complete cardiac cycles were traced to calculate fractional shortening, ejection fraction, left ventricular systolic volume, and left ventricular diastolic volume by using the VisualSonics software.
Procedures were carried out as outlined in Example 2. In contrast to permanent ischemia, the coronary artery occlusion was maintained for 60 minutes followed by removal of the ligature, allowing for reperfusion of the ischemic myocardium. Three doses of 30 mg/Kg ABR-238901 diluted in PBS were administered by daily i.p. injections at the time of the reperfusion, and after 24 h and 48 h (FIG. 5A).

[3] = system: BALB/c mice with induced myocarditis; test: Myocarditis induced by cardiac α-myosin peptide: flow cytometry of heart and heart-draining lymph nodes; details: day 21
Experimental: Animal care, induction of myocarditis and treatments were performed as described above (Example 11) (n=10 mice per group). The mice were sacrificed on day 21, and hearts and mediastinal heart-draining lymph nodes were isolated.
Single cell suspensions were obtained from the organs by mechanic sectioning and enzymatic digestion, and the cells were stained with fluorescently-conjugated antibodies for analysis by flow cytometry. After euthanization, the mice were perfused intra-cardially with 20 ml ice-cold PBS, hearts and mediastinal lymph nodes were harvested and placed in PBS on ice. Hearts were cut in small pieces for 2 min while placed in digestion mixture containing 450 U/ml Collagenase I-S (Sigma-Aldrich, C0130), 125 U/ml Collagenase XI (Sigma-Aldrich, C7657), 60 U/ml Hyaluronidase Type I-S(Sigma-Aldrich H3506), 60 U/ml DNAse I (Sigma-Aldrich, DN25), and 20 mM HEPES (Fischer Scientific, SH3023701) in PBS, and thereafter incubated for 1 h at 37° C. with gentle agitation. Enzymatically-digested tissues were passed through a 70 μm cell strainer and washed twice with PBS. Mediastinal lymph nodes were passed through a 70 μm cell strainer and washed twice with PBS before staining. Single cell suspensions were stained in PBS with Zombie Aqua live/dead (BioLegend, 423102) for 10 min at RT followed by extracellular staining in FC-buffer (PBS, 0.5% BSA and 20 mM EDTA) with fluorescently-conjugated antibodies for 20 min on ice. The following monoclonal antibodies were used: anti-CD3ε (clone 145-2C11), anti-CD4 (clone OKT4), anti-CD8 (clone RPA-T8), anti-CD11b (clone EP1345Y), anti-CD11c (clone N418), anti-CD19 (clone 6D5), anti-CD44 (clone IM7), anti-CD45.2 (clone 104), anti-CD49b (clone DX5) anti-CD62L (clone MEL-14), […], anti-CD69 (clone X54-5/7.1), anti-CD115 (clone AFS98), anti-Ly-6C (clone HK1.4), anti-Ly-6G (clone 1A8), anti-MerTK (clone DS5MMER), anti-MHCII (clone M5/114.15.2), anti-Siglec-F (clone E50-2440). Appropriate single stains were performed using AbC Total Antibody Compensation Bead kit (Thermo Fischer Scientific) or with cells for live/dead. Flow cytometry analysis was done using a Gallios Flow Cytometer (Beckman Coulter) and data was analyzed using the FlowJo software (Tree Star).

[4] = 2 days after ischemia/reperfusion

COc1ncc(S(=O)(=O)Nc2cncc(Cl)c2O)cc1Br [ABR-238901, 5-bromo-N-(5-chloro-4-hydroxypyridin-3-yl)-6-methoxypyridine-3-sulfonamide]
Left ventricular ejection fraction (LVEF) ([1]; 12 h): 44.7%
Cardiac output ([1]; 24 h): 9.17 mL/min
Left ventricular ejection fraction (LVEF) ([1]; 24 h): 54.74%
Left ventricular EF ([2]; 30 mg/Kg i.p. at reperfusion, 24 h, 48 h, echocardiography, day 3): 42%
Left ventricular EF, average ([2]; 30 mg/Kg i.p. at reperfusion, 24 h, 48 h, echocardiography, day 7): 45%
Left ventricular EF ([2]; 30 mg/Kg i.p. at reperfusion, 24 h, 48 h, echocardiography, day 21): 48%
Numbers of monocytes in the bone marrow [2, 4]: increased
Numbers of neutrophils in the bone marrow [2, 4]: increased
Average EDV vs MI control ([2]; 3 days treatment): no significant differences
Average ESV vs MI control ([2]; 3 days treatment): no significant differences
Cardiac output, average ([2]; 3 days treatment, day 21): 15.7 mL/min
Macrophage infiltration in the myocardium ([2]; day 2 after ischemia/reperfusion): decreased
Cardiac eosinophil infiltration, percent of live CD45+ leukocytes [3]: 7.5%
Effector memory (CD44+CD62L−) CD4+ T cells in heart-draining lymph nodes, percent of live CD45+CD3+ T cells [3]: 15.9%
Effector memory (CD44+CD62L−) CD8+ T cells in heart-draining lymph nodes, percent of live CD45+CD3+ T cells [3]: 23.3%
Infiltration of cDCs in the heart, % of live CD45+ leukocytes [3]: 5.7%
Total CD3+ T cells in heart-draining lymph nodes, % of live CD45+ leukocytes [3]: 59.5%

— patent US20220378763A1, “COMPOUND FOR TREATMENT OF ACUTE INFLAMMATION IN THE MYOCARDIUM” (CALPROTECT AB, priority 2019, published 2022)
